Results taken from ChEMBL document CHEMBL1201862, “PubChem BioAssay data set” (2004).
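Where inhibition never reached the appropriate level, the endpoint shown equals the highest concentration tested. Otherwise, values were interpolated linearly from a five-concentration, 48-hour dose response in 96-well plates. GI50 marks 50% less growth.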 Active and inactive are the calls of the source. Cut-off read from the data, not from the text of the source: active = GI50 up to about 1.1 µM and inactive = higher.

Experiments:
Assay in all cases: NCI anticancer screen, dose series, 48 h
786-0 = test system: 786-0
A498 = test system: A498
A549 = test system: A549
ACHN = test system: ACHN
CAKI-1 = test system: CAKI-1
CCRF-CEM = test system: CCRF-CEM
COLO 205 = test system: COLO 205
DLD-1 = test system: DLD-1
DMS-114 = test system: DMS-114
DMS-273 = test system: DMS-273
EKVX = test system: EKVX
HCC 2998 = test system: HCC 2998
HCT-15 = test system: HCT-15
HL-60 = test system: HL-60
HOP-18 = test system: HOP-18
HOP-62 = test system: HOP-62
HOP-92 = test system: HOP-92
HT-29 = test system: HT-29
IGROV-1 = test system: IGROV-1
K562 = test system: K562
KM-20L2 = test system: KM-20L2
KM12 = test system: KM12
LOX IMVI = test system: LOX IMVI
LXFL 529 = test system: LXFL 529
M14 = test system: M14
M19-MEL = test system: M19-MEL
MOLT-4 = test system: MOLT-4
Malme-3M = test system: Malme-3M
NCI-H226 = test system: NCI-H226
NCI-H23 = test system: NCI-H23
NCI-H460 = test system: NCI-H460
NCI-H522 = test system: NCI-H522
OVCAR-3 = test system: OVCAR-3
OVCAR-4 = test system: OVCAR-4
OVCAR-5 = test system: OVCAR-5
OVCAR-8 = test system: OVCAR-8
RPMI-8226 = test system: RPMI-8226
SF-268 = test system: SF-268
SF-295 = test system: SF-295
SF-539 = test system: SF-539
SK-MEL-28 = test system: SK-MEL-28
SK-MEL-2 = test system: SK-MEL-2
SK-MEL-5 = test system: SK-MEL-5
SK-OV-3 = test system: SK-OV-3
SN12C = test system: SN12C
SNB-19 = test system: SNB-19
SNB-75 = test system: SNB-75
SNB-78 = test system: SNB-78
SW-620 = test system: SW-620
TK-10 = test system: TK-10
U-251 = test system: U-251
UACC-257 = test system: UACC-257
UACC-62 = test system: UACC-62
UO-31 = test system: UO-31
XF498 = test system: XF498
HCT-116 = test system: HCT-116
RXF 393 = test system: RXF 393
SR = test system: SR

Measured: GI50

CCOc1ccc2c(c1)[n+]([O-])c(-c1nc3ccccc3s1)c(N)[n+]2[O-]
inactive: 786-0 48.4 µM | A498 61.8 µM | A549 61.8 µM | ACHN 55.1 µM | CAKI-1 83.4 µM | CCRF-CEM 48 µM | COLO 205 > 100 µM | DLD-1 76.4 µM | DMS-114 44.1 µM | DMS-273 52.6 µM | EKVX 53.1 µM | HCC 2998 96.6 µM | HL-60 31.2 µM | HOP-18 15.4 µM | HOP-62 88.7 µM | HOP-92 26.2 µM | HT-29 58.7 µM | IGROV-1 75.9 µM | K562 61.9 µM | KM-20L2 > 100 µM | KM12 60.7 µM | LOX IMVI 64 µM | LXFL 529 37.4 µM | M14 60.7 µM | M19-MEL > 100 µM | MOLT-4 36.7 µM | Malme-3M > 100 µM | NCI-H226 45.4 µM | NCI-H23 25.6 µM | NCI-H460 58.7 µM | NCI-H522 21.6 µM | OVCAR-3 38.4 µM | OVCAR-4 65.5 µM | OVCAR-5 > 100 µM | OVCAR-8 75.2 µM | RPMI-8226 44.3 µM | SF-268 32.1 µM | SF-295 50 µM | SF-539 43.1 µM | SK-MEL-28 38.7 µM | SK-MEL-2 52.8 µM | SK-MEL-5 30.3 µM | SK-OV-3 > 100 µM | SN12C 82.6 µM | SNB-19 48.1 µM | SNB-75 57.4 µM | SNB-78 > 100 µM | SW-620 86.7 µM | TK-10 > 100 µM | U-251 46.7 µM | UACC-257 42.1 µM | UACC-62 64.7 µM | UO-31 31.3 µM | XF498 25.8 µM
49.5 µM: HCT-15

O=C(c1ccc(Cl)cc1)N(C(=S)N1CCN(c2ccccn2)CC1)C1CCCCC1
43.8 µM: HCT-15
inactive: 786-0 36.4 µM | A549 45.1 µM | ACHN 43.6 µM | CAKI-1 > 100 µM | CCRF-CEM 48.5 µM | COLO 205 44.4 µM | DLD-1 81.7 µM | DMS-114 34.9 µM | DMS-273 34.3 µM | HCT-116 36.6 µM | HL-60 17.3 µM | HOP-18 > 100 µM | HOP-62 71.8 µM | HOP-92 > 100 µM | HT-29 55.3 µM | IGROV-1 > 100 µM | K562 37.6 µM | KM-20L2 74.1 µM | KM12 68.1 µM | LOX IMVI 56.1 µM | LXFL 529 75.7 µM | M14 > 100 µM | M19-MEL > 100 µM | MOLT-4 24.3 µM | Malme-3M > 100 µM | NCI-H226 18.2 µM | NCI-H23 96.8 µM | NCI-H460 30 µM | NCI-H522 38.6 µM | OVCAR-3 45.9 µM | OVCAR-4 > 100 µM | OVCAR-5 > 100 µM | OVCAR-8 > 100 µM | RPMI-8226 25.5 µM | RXF 393 35.6 µM | SF-268 27.3 µM | SF-295 74.1 µM | SF-539 61.7 µM | SK-MEL-28 > 100 µM | SK-MEL-2 > 100 µM | SK-MEL-5 38.7 µM | SK-OV-3 > 100 µM | SN12C > 100 µM | SNB-19 96.4 µM | SNB-75 > 100 µM | SNB-78 > 100 µM | SR 41.1 µM | SW-620 83.6 µM | TK-10 > 100 µM | U-251 37.2 µM | UACC-257 30.8 µM | UACC-62 > 100 µM | UO-31 48.3 µM | XF498 8.26 µM
